Laboratory results taken from paper PMC5155146, “Thioredoxin-interacting protein regulates haematopoietic stem cell ageing and rejuvenation by inhibiting p38 kinase activity” (Nature Communications, 2016).

How the values were obtained:
[1] = tested on: mice; assay: 5-FU haematopoietic stress in mice; type: in vivo, mouse
Procedure: young TXNIP+/+ or T X N IP -/- mice after 5-FU (150 mg kg-1) administration (n=10). NAC was
i.p. injected 100 m g kg -1 daily starting at da y -1. […] We i.p. injected
5- FU (150 mg kg-1) and NAC (100 mg kg-1) then examined ROS in HSCs after 24 hours
Data are mean ± s.d. Statistical significance was determined using a two-t ailed
Student’s t -tests. *P< 0.05, **P < 0.01, ***P <0.001.

[2] = tested on: TXNIP−/− HSCs; assay: ROS and phospho-p38 of LT-HSCs after NAC treatment in vivo; design: species or system mouse; details: 12-month-old TXNIP−/− mice, NAC 100 mg kg−1 i.p., after 12 hours; n=3
Procedure: Supplementary Figure 2. Expression of p38 and TXNIP in HSCs and their interaction.
(a,b) ROS (a) and phospho- p38 level (b) of LT-HSCs after NAC treatment. We i.p. injected
100 mg kg-1 NAC into mice then anal yzed after 12 hours (n=3 ) . (c) Quantitative real-time
PCR of p38famil y in indicated subsets (n=3). ( d) Western blot anal yses of lin- cells (r epeated
3 times). ( e) Real-time PCR of TXNIP i n LT -HSCs (n=3). ( f) Confocal images of TXNIP in
LT-HSCs (rep eated 3 times). (g) Western blot anal yses of BM cells (rep eated 2 times). ( h,i )
GST pull-down assa y (repeated 3 times). ( j) Constructed p38 mutant clones. ( k) GST pull-
down assays between TXNIP and p38 mutants (repeated 3 times). Data are mean ± s.d.
Statistical significance was determined using a two-tailed Student’s t -tests. **P < 0.01.
matched WT mice (Fig. 1b). To make the data more consistent, the authors should present
their data as percentages of bone marrow cells and absolute number of LT-HSCs, SH-HSCs
Thank you for your valuable comments. We calculated the percentages of bone
marrow cells and absolute number of LT-HSCs, SH-HSCs and MPPs, and presented
the results in our new version Supplementary Fig. 1c,d.
the exhaustion of HSCs in TXNIP-/- mice by high ROS. We have added this text
“Next, we analyzed the frequency of BM cells and absolute number of LT-HSCs,
ST-HSCs and MPPs in each mouse. […]

[3] = tested on: aged HSCs; assay: Competitive transplantation of treated HSCs; type: in vivo, mouse; details: long-term SB203580-administered recipients; n=6-7 from two experiments (Fig. 3d,e)
Excerpt: The repopulation of donor-derived cells was monitored by staining PB from tail vein and BM cells with antibodies against indicated surface markers after 16 weeks.

[4] = tested on: old HSCs; assay: Polar distribution of Cdc42 in LT-HSCs (confocal); type: cell-based, mouse; details: sorted LT-HSCs, 10 μM, 16 h in HSC media; 50-60 HSCs scored for Cdc42 polarity; repeated two times
Procedure: For phosho-p38 and TXNIP analysis using flow cytometry, total BM cells were first stained with surface markers and then fixed and permeabilized with the Cytofix/Perm Solution (BD Biosciences). For TXNIP staining, the cells were blocked with PBS containing 5% BSA for 30 min at RT and then incubated with primary antibody (1:50 dilution) for 1 h in PBS containing 5% BSA, washed three times with PBS and then incubated with a secondary Alexa Fluor 647 (Life technology; 1:1,000 dilution) for 1 h at RT or for phospho-p38 staining, the cells were incubated with anti-phospho-p38-APC (1:40 dilution) at 4 °C for 30 min in PBS containing 2% FBS. For confocal imaging, freshly isolated LT-HSCs were seeded on fibronectin-coated coverslips at 4 °C for 10 min and were immediately fixed. After fixation, cells were permeabilized with 0.2% Triton X-100 for 20 min and blocked with PBS containing 5% BSA for 30 min at RT. Cells were stained primary and secondary antibodies for 1 h at RT and then were mounted with DAPI containing mounting reagent (Molecular Probes). […] After fixation, cells were permeabilized with 0.2% Triton X-100 for 20 min and blocked with PBS containing 5% BSA for 30 min at RT. […] Fifty to sixty individual HSCs were scored for polarity of Cdc42. […]

[5] = tested on: TXNIP-p38 interaction; assay: TXNIP-p38 interaction (immunoprecipitation, in situ PLA, GST pull-down); type: cell-based; details: GST pull-down assay in 293T cells
[6] = Solubility; type: physicochemical; details: authors' statement in response to reviewers
[7] = tested on: p38α; assay: In vitro kinase assay for p38 (phospho-ATF2 read-out); type: biochemical, human; details: His-p38α, phospho-ATF2 levels; repeated 2 times (Suppl. Fig. 4b)
Procedure: To examine the kinase activity of p38 in vitro, we used p38 MAP Kinase assay kit (9820, Cell Signaling). We added 0.5–1 μg of His-p38α for kinase assay and its activity was determined by phospho-ATF2 levels. […] FLAG-p38α, β, γ and δ were expressed in 293T cells (ATCC). p38 isoforms were immunoprecipitated with α-FLAG antibody (Sigma; 1:250 dilution) then we performed in vitro kinase assay.

Question: Which results are given for CC(=O)N[C@@H](CS)C(=O)O [NAC, N-acetyl-L-cysteine]?
Answer: 5-FU-induced ROS in HSCs ([1]; 5-FU 150 mg kg−1 and NAC 100 mg kg−1 i.p., ROS after 24 hours, n=3): reversed; rescue of TXNIP−/− mice from 5-FU-induced leucopenia (survival) ([1]; young mice, 5-FU 150 mg kg−1, NAC 100 mg kg−1 i.p. daily from day −1, n=10): fully rescued; ROS level in HSCs [2]: decreased; p38 activation in HSCs [2]: decreased

Question: Which “p38 activity and ROS in donor-derived HSCs” value [3] does the source give for C[S+]([O-])c1ccc(-c2nc(-c3ccncc3)c(-c3ccc(F)cc3)[nH]2)cc1 (stereo not shown) [SB203580] here?
Answer: maintained low levels of p38 activity and ROS

Question: What about the “% of polarized cells (Old HSCs)” value [4] of the same molecule?
Answer: 76.9%

Question: What about the “p38 interaction ability with TXNIP” value [5] of the same molecule?
Answer: did not affect

Question: And the solubility [6]?
Answer: DMSO soluble

Question: With YGRKKRRQRRR [TAT] as the molecule, how does the “% of polarized cells (Old HSCs)” value [4] read?
Answer: 9.3%

B1: GST-TXNIP-T: GST-fused truncation mutant for TXNIP (150a.a–317a.a) (protein)
chain: DVNTPDLMAPVSAKKEKKVSCMFIPDGRVSVSARIDRKGFCEGDEISIHADFENTCSRIVVPKAAIVARHTYLANGQTKVLTQKLSSVRGNHIISGTCASWRGKSLRVQKIRPSILGCNILRVEYSLLIYVSVPGSKKVILDLPLVIGSRSGLSSRTSSMASRTSSEM
modifications: left off: GST, end not stated, kept
Question: With B1 as the molecule, how does the “p38 kinase activity in vitro” value [7] read?
Answer: inhibited p38 kinase activity in vitro
